Read-outs that look alike come from different tables or passages of the source. Blank lines part the entries; values can stand above or below the compound they belong to.
Target: PKM2 (Homo sapiens, UniProt P14618)
Assay: PKM2 Biochemical Assay
Conditions: for Max. Resp.: % maximum response in a biochemical assay as compared with Fructose 1,6-bisphosphate
Method: Full length, human PKM2 enzyme was obtained from Promab (Richmond, Calif.). All reagents, unless otherwise noted, were obtained from Sigma (St. Louis, Mo.).
Compounds were pre-incubated with 2 nM PKM2 in reaction buffer (50 mM Tris-HCl, pH 8.0, 200 mM KCl, 30 mM MgCl2, 2 mM DTT, 5% DMSO) for 30 min at ambient temperature. […] After 30 min, ATP formation was measured by Kinase Glo (Promega, Madison, Wis.), and AC50 values were determined using Prism (GraphPad Software, Inc., La Jolla, Calif.).

Sequence of PKM2 (P14618 whole entry): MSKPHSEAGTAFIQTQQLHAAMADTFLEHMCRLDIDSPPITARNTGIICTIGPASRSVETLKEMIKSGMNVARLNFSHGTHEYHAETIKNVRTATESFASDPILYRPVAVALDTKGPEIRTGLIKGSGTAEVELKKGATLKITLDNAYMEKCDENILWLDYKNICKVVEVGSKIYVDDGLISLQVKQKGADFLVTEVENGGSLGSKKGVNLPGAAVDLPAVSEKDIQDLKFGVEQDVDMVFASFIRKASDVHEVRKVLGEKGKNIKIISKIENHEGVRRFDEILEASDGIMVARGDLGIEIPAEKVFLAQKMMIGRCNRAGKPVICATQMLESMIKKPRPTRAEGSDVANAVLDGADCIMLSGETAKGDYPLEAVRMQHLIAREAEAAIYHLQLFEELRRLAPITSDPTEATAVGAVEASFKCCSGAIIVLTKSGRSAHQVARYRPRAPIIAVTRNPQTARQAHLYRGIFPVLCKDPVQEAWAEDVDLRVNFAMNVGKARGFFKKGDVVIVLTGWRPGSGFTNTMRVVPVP

Compound: CO[C@H]1CC[C@H](N(Cc2cccc(F)c2)C(=O)c2cc(C(F)(F)F)n[nH]2)CC1 [Example 48]
- Max. Resp.: 80%

Compound: CCOCCN(Cc1ccc(O)cc1F)C(=O)c1cc(C(F)(F)F)n[nH]1 [Example 24]
- Max. Resp.: 100%

Compound: O=C(c1cc(C(F)(F)F)n[nH]1)N(CCC1CCS(=O)(=O)C1)Cc1ccccc1F (stereo not drawn) [Example 63]
- Max. Resp.: 87%

Compound: CS(=O)(=O)N1CCC(CCN(Cc2ccccc2F)C(=O)c2cc(C(F)(F)F)n[nH]2)CC1 [Example 99]
- Max. Resp.: 100%

Compound: O=C(c1cc(C(F)(F)F)n[nH]1)N(CCC1CCS(=O)(=O)C1)Cc1ccncc1 (stereo not drawn) [Example 89]
- Max. Resp.: 35%

Compound: O=C(c1cc(Br)n[nH]1)N(CCC1CCS(=O)(=O)CC1)Cc1ccccc1F [Example 83]
- Max. Resp.: 98%

Compound: O=C(c1cc(C(F)(F)F)n[nH]1)N(CCC1CCSCC1)Cc1ccccc1Cl [Example 73, N-(2-chlorobenzyl)-N-(2-(tetrahydro-2H-thiopyran-4-yl)ethyl)-3-(trifluoromethyl)-1H-pyrazole-5-carboxamide]
- Max. Resp.: 79%

Compound: Nc1cc(C(=O)N(Cc2ccc(O)cc2F)CC2CCC2)[nH]n1 [Example 3, 3-amino-N-(cyclobutylmethyl)-N-(2-fluoro-4-hydroxybenzyl)-1H-pyrazole-5-carboxamide]
- Max. Resp.: 45%

Compound: CN(C)Cc1c[nH]c2cccc(CN(CC3CCC3)C(=O)c3cc(Cl)n[nH]3)c12 [Example 118, 3-CHLORO-N-(CYCLOBUTYLMETHYL)-N-((3-((DIMETHYLAMINO)METHYL)-1H-INDOL-4-YL)METHYL)-1H-PYRAZOLE-5-CARBOXAMIDE]
- Max. Resp.: 100%

Compound: O=C(c1cc(C(F)(F)F)n[nH]1)N(Cc1ccccc1F)CC1CCOC1 (stereo not drawn) [Example 150, N-(2-fluorobenzyl)-3-(trifluoromethyl)-N-((tetrahydrofuran-3-yl)methyl)-1H-pyrazole-5-carboxamide]
- Max. Resp.: 68%

Compound: O=C(c1cc(C(F)(F)F)n[nH]1)N(CCC1CCC2(CC1)OCCO2)Cc1ccccc1F [Example 59, N-(2-(1,4-dioxaspiro[4.5]decan-8-yl)ethyl)-N-(2-fluorobenzyl)-3-(trifluoromethyl)-1H-pyrazole-5-carboxamide]
- Max. Resp.: 100%

Compound: O=C(c1cc(C(F)(F)F)n[nH]1)N(CCC1CCOC1)Cc1ccc(O)cc1F (stereo not drawn) [Example 34]
- Max. Resp.: 109%

Compound: O=C(c1cc(C(F)(F)F)n[nH]1)N(Cc1cccc(F)c1O)CC1CCC1 [Example 136, N-(3-fluoro-2-hydroxybenzyl)-N-(cyclobutylmethyl)-3-(trifluoromethyl)-1H-pyrazole-5-carboxamide]
- Max. Resp.: 100%

Compound: CC(c1ccccc1)N(CC1CCC1)C(=O)c1cc(Br)n[nH]1 (stereo not drawn) [Example 4, 3-bromo-N-(cyclobutylmethyl)-N-(1-phenylethyl)-1H-pyrazole-5-carboxamide]
- AC50: 1.48 µM
- Max. Resp.: 52%

Compound: O=C(c1cc(Br)n[nH]1)N(Cc1cccc2[nH]cnc12)CC1CCC1 [Example 120, N-((1H-benzo[d]imidazol-4-yl)methyl)-3-bromo-N-(cyclobutylmethyl)-1H-pyrazole-5-carboxamide]
- Max. Resp.: 100%
- AC50 (read-out: PKM2 AC50, 2 nM PKM2, 75 μM ADP, 15 μM PEP, Kinase Glo): 1.33 µM

Compound: O=C(c1cc(C(F)(F)F)n[nH]1)N(Cc1ccccc1F)CC1COC1 [Example 20]
- Max. Resp.: 70%

Compound: O=C(c1cc(C(F)(F)F)n[nH]1)N(Cc1ccccc1F)c1ncco1 [Example 25]
- Max. Resp.: 35%

Compound: COCCCN(Cc1ccccc1F)C(=O)c1cc(C(F)(F)F)n[nH]1 [Example 23]
- Max. Resp.: 75%

Compound: O=C(c1cc(C(F)(F)F)n[nH]1)N(CCC1CC1)Cc1ccccc1F [Example 149, N-(2-fluorobenzyl)-N-(2-cyclopropylethyl)-3-(trifluoromethyl)-1H-pyrazole-5-carboxamide]
- Max. Resp.: 100%

Compound: O=C(c1cc(C(F)(F)F)n[nH]1)N(Cc1ccc(O)cc1Cl)CC1CCC1 [Example 124, N-(2-chloro-4-hydroxybenzyl)-N-(cyclobutylmethyl)-3-(trifluoromethyl)-1H-pyrazole-5-carboxamide]
- Max. Resp.: 100%

Compound: CCN(CC)CCN(Cc1ccccc1Cl)C(=O)c1cc(Br)n[nH]1 [Example 175, N-(2-chlorobenzyl)-3-bromo-N-(2-(diethylamino)ethyl)-1H-pyrazole-5-carboxamide]
- Max. Resp.: 100%

More lines, now with the values ahead:

- Emax (read-out: % FBP (extent of maximal activation, relative to FBP)): 100%
- AC50 (read-out: AC50 (concentration of half-maximal PKM2 activation), Table 2, n = 6 to 10): 0.023 ± 0.008 µM
- Maximal PKM2 activity (relative to activity in DMSO controls (normalized to 100%), FIG. 1B): approximately 600%
Compound: O=C(COP(=O)(O)O)[C@@H](O)[C@H](O)[C@H](O)COP(=O)(O)O [FBP, fructose-1,6-bisphosphate, reference compound]

- Max. Resp.: 100%
Compound: O=C(c1cc(C(F)(F)F)n[nH]1)N(CCN1CCCCCC1)Cc1ccccc1Cl [Example 189, N-(2-chlorobenzyl)-N-(2-(azepan-1-yl)ethyl)-3-(trifluoromethyl)-1H-pyrazole-5-carboxamide]

- Max. Resp.: 85%
Compound: O=C(c1cc(C(F)(F)F)n[nH]1)N(Cc1ccccc1Cl)CC1CCCN1 (stereo not drawn) [Example 232, N-(2-chlorobenzyl)-3-(trifluoromethyl)-N-((pyrrolidin-2-yl)methyl)-1H-pyrazole-5-carboxamide]

- Max. Resp.: 75%
Compound: Nc1ccc(CN(CCN2CCCCCC2)C(=O)c2cc(C(F)(F)F)n[nH]2)c(Cl)c1 [Example 207, N-(4-amino-2-chlorobenzyl)-N-(2-(azepan-1-yl)ethyl)-3-(trifluoromethyl)-1H-pyrazole-5-carboxamide]

- Max. Resp.: 100%
Compound: CC1CCCN(CCN(Cc2cc(N)ccc2Cl)C(=O)c2cc(C(F)(F)F)n[nH]2)C1 (stereo not drawn) [Example 200, N-(5-amino-2-chlorobenzyl)-3-(trifluoromethyl)-N-(2-(3-methylpiperidin-1-yl)ethyl)-1H-pyrazole-5-carboxamide]

- Max. Resp.: 100%
Compound: O=C(c1cc(C(F)(F)F)n[nH]1)N(CCN1CCCCCC1)Cc1ccccc1F [Example 197, N-(2-fluorobenzyl)-N-(2-(azepan-1-yl)ethyl)-3-(trifluoromethyl)-1H-pyrazole-5-carboxamide]

- Max. Resp.: 100%
Compound: O=C(c1cc(C(F)(F)F)n[nH]1)N(CCN1CCC(O)CC1)Cc1ccccc1Cl [Example 219, N-(2-chlorobenzyl)-3-(trifluoromethyl)-N-(2-(4-hydroxypiperidin-1-yl)ethyl)-1H-pyrazole-5-carboxamide]

- AC50: 1.15 µM
- Max. Resp.: 100%
Compound: CCN(CC)CCN(Cc1ccccc1Cl)C(=O)c1cc(Cl)n[nH]1 [Example 176, N-(2-chlorobenzyl)-3-chloro-N-(2-(diethylamino)ethyl)-1H-pyrazole-5-carboxamide]

- Max. Resp.: 100%
Compound: CN(C)CCN(Cc1ccccc1Cl)C(=O)c1cc(C(F)(F)F)n[nH]1 [Example 187, N-(2-chlorobenzyl)-N-(2-(dimethylamino)ethyl)-3-(trifluoromethyl)-1H-pyrazole-5-carboxamide]

- Max. Resp.: 100%
Compound: COc1ccc(N)cc1CN(CCN1CCCCCC1)C(=O)c1cc(C(F)(F)F)n[nH]1 [Example 215, N-(5-amino-2-methoxybenzyl)-N-(2-(azepan-1-yl)ethyl)-3-(trifluoromethyl)-1H-pyrazole-5-carboxamide]
